The term IC50 denotes the concentration that gives 50% inhibition. Read a high IC50 as weaker potency in that assay.

Sequence of binding between NRF2 and KEAP1 (Q14145 whole entry, the tested form may be a part): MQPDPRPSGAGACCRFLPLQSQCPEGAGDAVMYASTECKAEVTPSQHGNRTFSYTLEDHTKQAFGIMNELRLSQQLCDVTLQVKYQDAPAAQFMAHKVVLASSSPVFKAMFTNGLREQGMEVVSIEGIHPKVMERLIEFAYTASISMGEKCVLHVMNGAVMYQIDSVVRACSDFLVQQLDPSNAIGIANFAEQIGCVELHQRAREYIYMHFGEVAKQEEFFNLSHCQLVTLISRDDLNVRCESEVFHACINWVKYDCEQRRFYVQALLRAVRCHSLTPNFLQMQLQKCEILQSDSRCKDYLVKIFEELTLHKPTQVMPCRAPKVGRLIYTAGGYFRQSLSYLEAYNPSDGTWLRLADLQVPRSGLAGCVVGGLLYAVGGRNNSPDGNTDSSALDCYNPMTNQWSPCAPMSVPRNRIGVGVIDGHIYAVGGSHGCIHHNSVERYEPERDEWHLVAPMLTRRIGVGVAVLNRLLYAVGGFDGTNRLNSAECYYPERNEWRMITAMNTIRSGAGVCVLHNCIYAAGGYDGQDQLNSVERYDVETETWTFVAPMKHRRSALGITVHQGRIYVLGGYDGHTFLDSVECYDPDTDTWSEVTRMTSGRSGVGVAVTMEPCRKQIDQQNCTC

The assay has as its target binding between NRF2 and KEAP1 (Homo sapiens (Human), UniProt Q14145). Put plainly: Binding assay: inhibition of binding between NRF2 and KEAP1 by BRET (NanoLuc-NRF2 and KEAP1-HaloTag cell lysates). The conditions noted are these: Test Example 1-1; NRF2-KEAP1 BRET; N=2. On the procedure:
The inhibitory activity of each compound on the binding between NRF2 and KEAP1 was measured by bioluminescence resonance energy transfer (BRET) assay. A plasmid having human NRF2 (Original Clone ID: ha01449s1) sequence fused with NanoLuc (19 kDa, Promega) at the N-terminal was transduced into HCE-T cells (immortalized human corneal epithelial cells) using FuGENE HD (Promega). 48 hours after transduction, the cell lysate was collected and used as an NRF2-expressing cell lysate. A plasmid having human KEAP1 (Original Clone ID: cs00328) sequence fused with HaloTag (33 kDa, Promega) at the C-terminal was transduced into HCE-T cells using FuGENE HD (Promega). After 24 hours, HaloTag Nano BRET 618 Ligand (Promega) was added to the medium. The cell lysate cultured for 24 hours after the addition was used as a KEAP1-expressing cell lysate.
The NRF2-expressing cell lysate and the KEAP1-expressing cell lysate were adjusted so that the luminescence and fluorescence intensities per well were constant. Tables 1 and 2 show the formulation of each reaction solution.
Each test substance at a concentration 100 times higher than the test concentration was dissolved in dimethylsulfoxide for adjustment. 49 μL of KEAP1 solution was added to a 96-well polystyrene microplate (FALCON) to which 1 μL of each test substance solution was added, followed by incubation for 15 minutes. Then, 50 μL of NRF2 solution was added to the above solution, followed by incubation for 1 hour. To measure the binding between NRF2 and KEAP1, NanoBRET Nano-Glo Substrate (Promega) diluted with Opti-Mem (Thermo Fisher Scientific) was added, followed by shaking for 30 seconds. Then, luminescence and fluorescence were measured using the GloMax Discover System (Promega). A 495-nm short pass filter and a 600-nm long pass filter were respectively used to measure donor and acceptor emission values. A value obtained by dividing the acceptor emission value by the donor emission value was regarded as BRET value. A BRET value when the compound was not added, and a BRET value when the KEAP1 solution was not added were respectively used as binding rates of 100% and 0%, and the binding rate when the compound was added was calculated. Further, using this binding rate, the 50% binding inhibitory activity concentration (IC50) was calculated from the following formula. The test was performed at N=2.
IC50(M)=10^(LOG(A/B)×(50−C)/(D−C)+LOG(B)) • A: higher concentration out of 2 close concentrations across the inhibition rate of 50% • B: lower concentration out of 2 close concentrations across the inhibition rate of 50% • C: inhibition rate at B • D: inhibition rate at A
Compounds A1/A2, compounds B1/B2, compounds C1/C2, and compounds D1/D2 were used as test substances. Binding assay and reporter assay were performed as in Test Example 1-1 and Test Example 1-2.
`CC[C@@H]1CN(Cc2cc(C(c3ccc(C(C)=O)s3)C(C)C(=O)O)ccc2C)S(=O)(=O)c2ccccc2O1` (stereo partly drawn) [Compound 1, 3-(5-acetylthiophen-2-yl)-3-(3-{[(R)-4-ethyl-1,1-dioxide-3,4-dihydro-2H-benzo[b][1,4,5]oxathiazepin-2-yl]methyl}-4-methylphenyl)-2-methylpropanoic acid] returned an IC50 of 0.24 nM. This counts as sub-nanomolar.

“3-(3-{[(R)-4-ethyl-1,1-dioxide-3,4-dihydro-2H-benzo[b][1,4,5]oxathiazepin-2-yl]methyl}-4-methylphenyl)-3-(5-sulfamoylthiophen-2-yl)propanoic acid [Compound 18]” returned a concentration for half-maximal inhibition (IC50) of 35 nM. With `CC[C@@H]1CN(Cc2cc(C(CC(=O)O)c3cc(C(C)=O)cs3)ccc2C)S(=O)(=O)c2ccccc2O1` (stereo partly drawn) [Compound 10, 3-(4-acetylthiophen-2-yl)-3-(3-{[(R)-4-ethyl-1,1-dioxide-3,4-dihydro-2H-benzo[b][1,4,5]oxathiazepin-2-yl]methyl}-4-methylphenyl)propanoic acid] the figure was 0.3 nM; with `CC[C@@H]1CN(Cc2cc(C(c3ccc(C(C)=O)s3)C(C)(C)C(=O)O)ccc2C)S(=O)(=O)c2ccccc2O1` (stereo partly drawn) [Compound 6, 3-(5-acetylthiophen-2-yl)-3-(3-{[(R)-4-ethyl-1,1-dioxide-3,4-dihydro-2H-benzo[b][1,4,5]oxathiazepin-2-yl]methyl}-4-methylphenyl)-2,2-dimethylpropanoic acid], 0.27 nM; with `CC[C@@H]1CN(Cc2cc(C(c3cc(OC)c(C(C)=O)s3)C(C)(C)C(=O)O)ccc2C)S(=O)(=O)c2ccccc2O1` (stereo partly drawn) [Compound 4, 3-(5-acetyl-4-methoxythiophen-2-yl)-3-(3-{[(R)-4-ethyl-1,1-dioxide-3,4-dihydro-2H-benzo[b][1,4,5]oxathiazepin-2-yl]methyl}-4-methylphenyl)-2,2-dimethylpropanoic acid], 0.41 nM. Under `CC[C@@H]1CN(Cc2cc(C(c3ccc(C(C)=O)s3)C(C)(C)C(=O)O)ccc2C)S(=O)(=O)c2cnccc2O1` (stereo partly drawn) [Compound 48, 3-(5-acetylthiophen-2-yl)-3-(3-{[(R)-4-ethyl-1,1-dioxide-3,4-dihydro-2H-pyrido[4,3-b][1,4,5]oxathiazepin-2-yl]methyl}-4-methylphenyl)-2,2-dimethylpropanoic acid] stands 0.39 nM. For the compound `CC[C@@H]1CN(Cc2cc(C(c3cc(OC)c(C(C)=O)s3)C(C)C(=O)O)ccc2C)S(=O)(=O)c2cnccc2O1` (stereo partly drawn) [Compound 51, 3-(5-acetyl-4-methoxythiophen-2-yl)-3-(3-{[(R)-4-ethyl-1,1-dioxide-3,4-dihydro-2H-pyrido[4,3-b][1,4,5]oxathiazepin-2-yl]methyl}-4-methylphenyl)-2-methylpropanoic acid], the concentration for half-maximal inhibition (IC50) was determined as 0.41 nM.

For `CC[C@@H]1CN(Cc2cc(C(c3cc(F)c(C(C)=O)s3)C(C)(C)C(=O)O)ccc2C)S(=O)(=O)c2ccccc2O1` (stereo partly drawn) [Compound 11, 3-(5-acetyl-4-fluorothiophen-2-yl)-3-(3-{[(R)-4-ethyl-1,1-dioxide-3,4-dihydro-2H-benzo[b][1,4,5]oxathiazepin-2-yl]methyl}-4-methylphenyl)-2,2-dimethylpropanoic acid], the IC50 is 0.23 nM. With `CC(=O)c1ccc(C(c2ccc(C)c(CN3C[C@@H](C)Oc4ccccc4S3(=O)=O)c2)C(C)(C)C(=O)O)s1` (stereo partly drawn) [Compound 12, 3-(5-acetylthiophen-2-yl)-2,2-dimethyl-3-(4-methyl-3-{[(R)-4-methyl-1,1-dioxide-3,4-dihydro-2H-benzo[b][1,4,5]oxathiazepin-2-yl]methyl}phenyl)propanoic acid] the figure was 0.28 nM. Compound `CC[C@@H]1CN(Cc2cc(C(c3cc(C(C)=O)cs3)C(C)C(=O)O)ccc2C)S(=O)(=O)c2ccccc2O1` (stereo partly drawn) [Compound 3, 3-(4-acetylthiophen-2-yl)-3-(3-{[(R)-4-ethyl-1,1-dioxide-3,4-dihydro-2H-benzo[b][1,4,5]oxathiazepin-2-yl]methyl}-4-methylphenyl)-2-methylpropanoic acid] gave an IC50 of 0.17 nM. In the case of `CC[C@@H]1CN(Cc2cc(C(CC(=O)O)c3ccc(C(C)=O)s3)ccc2C)S(=O)(=O)c2ccccc2O1` (stereo partly drawn) [Compound 5, 3-(5-acetylthiophen-2-yl)-3-(3-{[(R)-4-ethyl-1,1-dioxide-3,4-dihydro-2H-benzo[b][1,4,5]oxathiazepin-2-yl]methyl}-4-methylphenyl)propanoic acid], the IC50 came to 0.23 nM. With `CC[C@@H]1CN(Cc2cc(C(c3cc(OC)c(C(C)=O)s3)C(C)(C)C(=O)O)ccc2C)S(=O)(=O)c2cnccc2O1` (stereo partly drawn) [Compound 50, 3-(5-acetyl-4-methoxythiophen-2-yl)-3-(3-{[(R)-4-ethyl-1,1-dioxide-3,4-dihydro-2H-pyrido[4,3-b][1,4,5]oxathiazepin-2-yl]methyl}-4-methylphenyl)-2,2-dimethylpropanoic acid] the figure was 0.19 nM. With `CC[C@@H]1CN(Cc2cc(C(c3cc(F)c(C(C)=O)s3)C(C)(C)C(=O)O)ccc2C)S(=O)(=O)c2cnccc2O1` (stereo partly drawn) [Compound 49, 3-(5-acetyl-4-fluorothiophen-2-yl)-3-(3-{[(R)-4-ethyl-1,1-dioxide-3,4-dihydro-2H-pyrido[4,3-b][1,4,5]oxathiazepin-2-yl]methyl}-4-methylphenyl)-2,2-dimethylpropanoic acid] the figure was 0.31 nM; with `CC[C@@H]1CN(Cc2cc(C(CC(=O)O)c3csc(C(=O)NC)c3)ccc2C)S(=O)(=O)c2ccccc2O1` (stereo partly drawn) [Compound 22, 3-(3-{[(R)-4-ethyl-1,1-dioxide-3,4-dihydro-2H-benzo[b][1,4,5]oxathiazepin-2-yl]methyl}-4-methylphenyl)-3-[5-(methylcarbamoyl)thiophen-3-yl]propanoic acid], 6.1 nM. `CC[C@@H]1CN(Cc2cc(C(CC(=O)O)c3cc(F)c(C(C)=O)s3)ccc2C)S(=O)(=O)c2ccccc2O1` (stereo partly drawn) [Compound 8, 3-(5-acetyl-4-fluorothiophen-2-yl)-3-(3-{[(R)-4-ethyl-1,1-dioxide-3,4-dihydro-2H-benzo[b][1,4,5]oxathiazepin-2-yl]methyl}-4-methylphenyl)propanoic acid] gave an IC50 of 0.36 nM. Take `CC[C@@H]1CN(Cc2cc(C(CC(=O)O)c3ccc(C#N)s3)ccc2C)S(=O)(=O)c2ccccc2O1` (stereo partly drawn) [Compound 19, 3-(5-cyanothiophen-2-yl)-3-(3-{[(R)-4-ethyl-1,1-dioxide-3,4-dihydro-2H-benzo[b][1,4,5]oxathiazepin-2-yl]methyl}-4-methylphenyl)propanoic acid]: the 50% inhibitory concentration (IC50) stood at 3.1 nM. For the compound `CC[C@@H]1CN(Cc2cc(C(CC(=O)O)c3ccc(C(=O)NC)s3)ccc2C)S(=O)(=O)c2ccccc2O1` (stereo partly drawn) [Compound 21, 3-(3-{[(R)-4-ethyl-1,1-dioxide-3,4-dihydro-2H-benzo[b][1,4,5]oxathiazepin-2-yl]methyl}-4-methylphenyl)-3-[5-(methylcarbamoyl)thiophen-2-yl]propanoic acid], the half-maximal inhibitory concentration (IC50) was 4.6 nM. With `CC[C@@H]1CN(Cc2cc(C(CC(=O)O)c3cc(C)c(C(C)=O)s3)ccc2C)S(=O)(=O)c2ccccc2O1` (stereo partly drawn) [Compound 7, 3-(5-acetyl-4-methylthiophen-2-yl)-3-(3-{[(R)-4-ethyl-1,1-dioxide-3,4-dihydro-2H-benzo[b][1,4,5]oxathiazepin-2-yl]methyl}-4-methylphenyl)propanoic acid] the figure was 0.36 nM.

`CC[C@@H]1CN(Cc2cc(C(CC(=O)O)c3sc(C(C)=O)cc3C)ccc2C)S(=O)(=O)c2ccccc2O1` (stereo partly drawn) [Compound 14, 3-(5-acetyl-3-methylthiophen-2-yl)-3-(3-{[(R)-4-ethyl-1,1-dioxide-3,4-dihydro-2H-benzo[b][1,4,5]oxathiazepin-2-yl]methyl}-4-methylphenyl)propanoic acid] came in with an IC50 of 1.3 nM. In the case of `CC[C@@H]1CN(Cc2cc(C(CC(=O)O)c3cccs3)ccc2C)S(=O)(=O)c2ccccc2O1` (stereo partly drawn) [Compound 17, 3-(3-{[(R)-4-ethyl-1,1-dioxide-3,4-dihydro-2H-benzo[b][1,4,5]oxathiazepin-2-yl]methyl}-4-methylphenyl)-3-(thiophen-2-yl)propanoic acid], the IC50 was 28 nM. Under `CC[C@@H]1CN(Cc2cc(C(CC(=O)O)c3ccc(C(N)=O)s3)ccc2C)S(=O)(=O)c2ccccc2O1` (stereo partly drawn) [Compound 23, 3-(5-carbamoylthiophen-2-yl)-3-(3-{[(R)-4-ethyl-1,1-dioxide-3,4-dihydro-2H-benzo[b][1,4,5]oxathiazepin-2-yl]methyl}-4-methylphenyl)propanoic acid] stands 0.39 nM.

Values taken from US20240132519A1, “NRF2-ACTIVATING COMPOUND” (SENJU PHARMACEUTICAL CO., LTD., priority 2020, published 2024).
